Assays:
Test in all cases: relative viability (nuclei count vs DMSO), 5 days (fraction); higher = more cells survive
VE-821 + Phenformin = compound: CS(=O)(=O)c1ccc(-c2cnc(N)c(C(=O)Nc3ccccc3)n2)cc1 [VE-821] + N=C(N)NC(=N)NCCc1ccccc1 [Phenformin] (partner 250 µM)
Outline: (§1)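 Relative viability divides the nuclei count in treated wells by that in vehicle wells. Lung cancer cell lines were seeded in 1536-well plates, dosed by pin tool the next day, and fixed and stained after 5 days in one step with final 0.05% Triton X-100, 1% formaldehyde and 1 ug/ml Hoechst. Dosing was a single drug or a fixed anchor-drug dose plus five library-drug doses (not always all listed) in √10 steps, and values are medians of duplicate plates imaged at 4×.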

Vismodegib + Luminespib = compound: CS(=O)(=O)c1ccc(C(=O)Nc2ccc(Cl)c(-c3ccccn3)c2)c(Cl)c1 [Vismodegib] + CCNC(=O)c1noc(-c2cc(C(C)C)c(O)cc2O)c1-c1ccc(CN2CCOCC2)cc1 [Luminespib] (partner 0.01 µM)
Outline: as §1

Vismodegib + Crizotinib = compound: CS(=O)(=O)c1ccc(C(=O)Nc2ccc(Cl)c(-c3ccccn3)c2)c(Cl)c1 [Vismodegib] + C[C@@H](Oc1cc(-c2cnn(C3CCNCC3)c2)cnc1N)c1c(Cl)ccc(F)c1Cl [Crizotinib] (partner 1 µM)
Outline: as §1

Ruxolitinib + Lapatinib = compound: N#CC[C@H](C1CCCC1)n1cc(-c2ncnc3[nH]ccc23)cn1 [Ruxolitinib] + CS(=O)(=O)CCNCc1ccc(-c2ccc3ncnc(Nc4ccc(OCc5cccc(F)c5)c(Cl)c4)c3c2)o1 [Lapatinib] (partner 2 µM)
Outline: as §1

## NCI-H2023
VE-821 + Phenformin; first compound 0.08 µM
  relative viability: 0.481
VE-821 + Phenformin; first compound 0.253 µM
  relative viability: 0.394
VE-821 + Phenformin; first compound 0.8 µM
  relative viability: 0.282
VE-821 + Phenformin; first compound 2.53 µM
  relative viability: 0.272
VE-821 + Phenformin; first compound 8 µM
  relative viability: 0.139
Vismodegib + Luminespib; first compound 0.08 µM
  relative viability: 0.634
Vismodegib + Luminespib; first compound 0.253 µM
  relative viability: 0.789
Vismodegib + Luminespib; first compound 0.8 µM
  relative viability: 0.891
Vismodegib + Luminespib; first compound 2.53 µM
  relative viability: 0.68
Vismodegib + Luminespib; first compound 8 µM
  relative viability: 0.794
Vismodegib + Crizotinib; first compound 0.08 µM
  relative viability: 0.586
Vismodegib + Crizotinib; first compound 0.253 µM
  relative viability: 0.56
Vismodegib + Crizotinib; first compound 0.8 µM
  relative viability: 0.707
Vismodegib + Crizotinib; first compound 2.53 µM
  relative viability: 0.615
Vismodegib + Crizotinib; first compound 8 µM
  relative viability: 0.685
Ruxolitinib + Lapatinib; first compound 0.08 µM
  relative viability: 0.921
Ruxolitinib + Lapatinib; first compound 0.253 µM
  relative viability: 0.693
Ruxolitinib + Lapatinib; first compound 0.8 µM
  relative viability: 1.75
Ruxolitinib + Lapatinib; first compound 2.53 µM
  relative viability: 0.807
Ruxolitinib + Lapatinib; first compound 8 µM
  relative viability: 0.728

## NCI-H2085
VE-821 + Phenformin; first compound 0.08 µM
  relative viability: 0.762
VE-821 + Phenformin; first compound 0.253 µM
  relative viability: 0.674
VE-821 + Phenformin; first compound 0.8 µM
  relative viability: 0.558
VE-821 + Phenformin; first compound 2.53 µM
  relative viability: 0.869
VE-821 + Phenformin; first compound 8 µM
  relative viability: 0.481
Vismodegib + Luminespib; first compound 0.08 µM
  relative viability: 0.393
Vismodegib + Luminespib; first compound 0.253 µM
  relative viability: 0.441
Vismodegib + Luminespib; first compound 0.8 µM
  relative viability: 0.423
Vismodegib + Luminespib; first compound 2.53 µM
  relative viability: 0.434
Vismodegib + Luminespib; first compound 8 µM
  relative viability: 0.474
Vismodegib + Crizotinib; first compound 0.08 µM
  relative viability: 0.867
Vismodegib + Crizotinib; first compound 0.253 µM
  relative viability: 0.873
Vismodegib + Crizotinib; first compound 0.8 µM
  relative viability: 0.854
Vismodegib + Crizotinib; first compound 2.53 µM
  relative viability: 0.826
Vismodegib + Crizotinib; first compound 8 µM
  relative viability: 0.83
Ruxolitinib + Lapatinib; first compound 0.08 µM
  relative viability: 0.853
Ruxolitinib + Lapatinib; first compound 0.253 µM
  relative viability: 0.67
Ruxolitinib + Lapatinib; first compound 0.8 µM
  relative viability: 1
Ruxolitinib + Lapatinib; first compound 2.53 µM
  relative viability: 0.725
Ruxolitinib + Lapatinib; first compound 8 µM
  relative viability: 0.806

## NCI-H2087
VE-821 + Phenformin; first compound 0.08 µM
  relative viability: 0.562
VE-821 + Phenformin; first compound 0.253 µM
  relative viability: 0.486
VE-821 + Phenformin; first compound 0.8 µM
  relative viability: 0.427
VE-821 + Phenformin; first compound 2.53 µM
  relative viability: 0.438
VE-821 + Phenformin; first compound 8 µM
  relative viability: 0.375
Vismodegib + Luminespib; first compound 0.08 µM
  relative viability: 0.171
Vismodegib + Luminespib; first compound 0.253 µM
  relative viability: 0.192
Vismodegib + Luminespib; first compound 0.8 µM
  relative viability: 0.172
Vismodegib + Luminespib; first compound 2.53 µM
  relative viability: 0.203
Vismodegib + Luminespib; first compound 8 µM
  relative viability: 0.209
Vismodegib + Crizotinib; first compound 0.08 µM
  relative viability: 0.834
Vismodegib + Crizotinib; first compound 0.253 µM
  relative viability: 0.906
Vismodegib + Crizotinib; first compound 0.8 µM
  relative viability: 0.713
Vismodegib + Crizotinib; first compound 2.53 µM
  relative viability: 0.797
Vismodegib + Crizotinib; first compound 8 µM
  relative viability: 0.908
Ruxolitinib + Lapatinib; first compound 0.08 µM
  relative viability: 1.05
Ruxolitinib + Lapatinib; first compound 0.253 µM
  relative viability: 1.1
Ruxolitinib + Lapatinib; first compound 0.8 µM
  relative viability: 1.16
Ruxolitinib + Lapatinib; first compound 2.53 µM
  relative viability: 0.786
Ruxolitinib + Lapatinib; first compound 8 µM
  relative viability: 1.04

## NCI-H2126
VE-821 + Phenformin; first compound 0.08 µM
  relative viability: 0.565
VE-821 + Phenformin; first compound 0.253 µM
  relative viability: 0.494
VE-821 + Phenformin; first compound 0.8 µM
  relative viability: 0.51
VE-821 + Phenformin; first compound 2.53 µM
  relative viability: 0.514
VE-821 + Phenformin; first compound 8 µM
  relative viability: 0.409
Vismodegib + Luminespib; first compound 0.08 µM
  relative viability: 0.84
Vismodegib + Luminespib; first compound 0.253 µM
  relative viability: 0.921
Vismodegib + Luminespib; first compound 0.8 µM
  relative viability: 0.809
Vismodegib + Luminespib; first compound 2.53 µM
  relative viability: 0.851
Vismodegib + Luminespib; first compound 8 µM
  relative viability: 0.82
Vismodegib + Crizotinib; first compound 0.08 µM
  relative viability: 1.11
Vismodegib + Crizotinib; first compound 0.253 µM
  relative viability: 0.96
Vismodegib + Crizotinib; first compound 0.8 µM
  relative viability: 1.08
Vismodegib + Crizotinib; first compound 2.53 µM
  relative viability: 0.991
Vismodegib + Crizotinib; first compound 8 µM
  relative viability: 1.04
Ruxolitinib + Lapatinib; first compound 0.08 µM
  relative viability: 0.907
Ruxolitinib + Lapatinib; first compound 0.253 µM
  relative viability: 0.776
Ruxolitinib + Lapatinib; first compound 0.8 µM
  relative viability: 0.837
Ruxolitinib + Lapatinib; first compound 2.53 µM
  relative viability: 0.874
Ruxolitinib + Lapatinib; first compound 8 µM
  relative viability: 0.878

## NCI-H2170
VE-821 + Phenformin; first compound 0.08 µM
  relative viability: 0.416
VE-821 + Phenformin; first compound 0.253 µM
  relative viability: 0.399
VE-821 + Phenformin; first compound 0.8 µM
  relative viability: 0.358
VE-821 + Phenformin; first compound 2.53 µM
  relative viability: 0.412
VE-821 + Phenformin; first compound 8 µM
  relative viability: 0.359
Vismodegib + Luminespib; first compound 0.08 µM
  relative viability: 0.677
Vismodegib + Luminespib; first compound 0.253 µM
  relative viability: 0.513
Vismodegib + Luminespib; first compound 0.8 µM
  relative viability: 0.762
Vismodegib + Luminespib; first compound 2.53 µM
  relative viability: 0.645
Vismodegib + Luminespib; first compound 8 µM
  relative viability: 0.7
Vismodegib + Crizotinib; first compound 0.08 µM
  relative viability: 1.23
Vismodegib + Crizotinib; first compound 0.253 µM
  relative viability: 1.08
Vismodegib + Crizotinib; first compound 0.8 µM
  relative viability: 1.19
Vismodegib + Crizotinib; first compound 2.53 µM
  relative viability: 1.17
Vismodegib + Crizotinib; first compound 8 µM
  relative viability: 1.31
Ruxolitinib + Lapatinib; first compound 0.08 µM
  relative viability: 0.303
Ruxolitinib + Lapatinib; first compound 0.253 µM
  relative viability: 0.253
Ruxolitinib + Lapatinib; first compound 0.8 µM
  relative viability: 0.302
Ruxolitinib + Lapatinib; first compound 2.53 µM
  relative viability: 0.276
Ruxolitinib + Lapatinib; first compound 8 µM
  relative viability: 0.301

## NCI-H2228
VE-821 + Phenformin; first compound 0.08 µM
  relative viability: 0.356
VE-821 + Phenformin; first compound 0.253 µM
  relative viability: 0.294
VE-821 + Phenformin; first compound 0.8 µM
  relative viability: 0.284
VE-821 + Phenformin; first compound 2.53 µM
  relative viability: 0.457
VE-821 + Phenformin; first compound 8 µM
  relative viability: 0.194
Vismodegib + Luminespib; first compound 0.08 µM
  relative viability: 0.225
Vismodegib + Luminespib; first compound 0.253 µM
  relative viability: 0.183
Vismodegib + Luminespib; first compound 0.8 µM
  relative viability: 0.182
Vismodegib + Luminespib; first compound 2.53 µM
  relative viability: 0.127
Vismodegib + Luminespib; first compound 8 µM
  relative viability: 0.18
Vismodegib + Crizotinib; first compound 0.08 µM
  relative viability: 0.563
Vismodegib + Crizotinib; first compound 0.253 µM
  relative viability: 0.412
Vismodegib + Crizotinib; first compound 0.8 µM
  relative viability: 0.426
Vismodegib + Crizotinib; first compound 2.53 µM
  relative viability: 0.547
Vismodegib + Crizotinib; first compound 8 µM
  relative viability: 0.419
Ruxolitinib + Lapatinib; first compound 0.08 µM
  relative viability: 0.972
Ruxolitinib + Lapatinib; first compound 0.253 µM
  relative viability: 1.17
Ruxolitinib + Lapatinib; first compound 0.8 µM
  relative viability: 1.22
Ruxolitinib + Lapatinib; first compound 2.53 µM
  relative viability: 0.82
Ruxolitinib + Lapatinib; first compound 8 µM
  relative viability: 0.664

## NCI-H2347
VE-821 + Phenformin; first compound 0.08 µM
  relative viability: 0.476
VE-821 + Phenformin; first compound 0.253 µM
  relative viability: 0.295
VE-821 + Phenformin; first compound 0.8 µM
  relative viability: 0.347
VE-821 + Phenformin; first compound 2.53 µM
  relative viability: 0.495
VE-821 + Phenformin; first compound 8 µM
  relative viability: 0.358
Vismodegib + Luminespib; first compound 0.08 µM
  relative viability: 0.402
Vismodegib + Luminespib; first compound 0.253 µM
  relative viability: 0.759
Vismodegib + Luminespib; first compound 0.8 µM
  relative viability: 0.709
Vismodegib + Luminespib; first compound 2.53 µM
  relative viability: 0.399
Vismodegib + Luminespib; first compound 8 µM
  relative viability: 0.586
Vismodegib + Crizotinib; first compound 0.08 µM
  relative viability: 0.691
Vismodegib + Crizotinib; first compound 0.253 µM
  relative viability: 0.713
Vismodegib + Crizotinib; first compound 0.8 µM
  relative viability: 0.64
Vismodegib + Crizotinib; first compound 2.53 µM
  relative viability: 0.582
Vismodegib + Crizotinib; first compound 8 µM
  relative viability: 0.656
Ruxolitinib + Lapatinib; first compound 0.08 µM
  relative viability: 0.825
Ruxolitinib + Lapatinib; first compound 0.253 µM
  relative viability: 0.964
Ruxolitinib + Lapatinib; first compound 0.8 µM
  relative viability: 0.912
Ruxolitinib + Lapatinib; first compound 2.53 µM
  relative viability: 0.836
Ruxolitinib + Lapatinib; first compound 8 µM
  relative viability: 0.734

## NCI-H2405
VE-821 + Phenformin; first compound 0.08 µM
  relative viability: 0.37
VE-821 + Phenformin; first compound 0.253 µM
  relative viability: 0.373
VE-821 + Phenformin; first compound 0.8 µM
  relative viability: 0.36
VE-821 + Phenformin; first compound 2.53 µM
  relative viability: 0.453
VE-821 + Phenformin; first compound 8 µM
  relative viability: 0.432
Vismodegib + Luminespib; first compound 0.08 µM
  relative viability: 0.735
Vismodegib + Luminespib; first compound 0.253 µM
  relative viability: 0.691
Vismodegib + Luminespib; first compound 0.8 µM
  relative viability: 0.706
Vismodegib + Luminespib; first compound 2.53 µM
  relative viability: 0.686
Vismodegib + Luminespib; first compound 8 µM
  relative viability: 0.686
Vismodegib + Crizotinib; first compound 0.08 µM
  relative viability: 0.851
Vismodegib + Crizotinib; first compound 0.253 µM
  relative viability: 0.86
Vismodegib + Crizotinib; first compound 0.8 µM
  relative viability: 0.807
Vismodegib + Crizotinib; first compound 2.53 µM
  relative viability: 0.784
Vismodegib + Crizotinib; first compound 8 µM
  relative viability: 0.83
Ruxolitinib + Lapatinib; first compound 0.253 µM
  relative viability: 1
Ruxolitinib + Lapatinib; first compound 0.8 µM
  relative viability: 1.23
Ruxolitinib + Lapatinib; first compound 2.53 µM
  relative viability: 0.879
Ruxolitinib + Lapatinib; first compound 8 µM
  relative viability: 0.643

Source: the supplement of paper PMC10307832
